Patent US20110053991A1, “Treatment of Histone Deacetylase Mediated Disorders” (priority 2007, published 2011)

What was measured:
Format in all cases: cell-based
Jurkat = experiment: MTT assay, cell number relative to vehicle; conditions: Homo sapiens, T Cell Lymphoblastic Leukemia, 48 hours
Molt-3 = experiment: MTT assay, cell number relative to vehicle; conditions: Homo sapiens, Molt-3, T Cell Lymphoblastic Leukemia, 48 hours
Molt-4 = experiment: MTT assay, cell number relative to vehicle; conditions: Homo sapiens, Molt-4, T Cell Lymphoblastic Leukemia, 48 hours
HSB-2 = experiment: MTT assay, cell number relative to vehicle; conditions: HSB2, HSB-2 (LCK-TCRβ), T Cell Lymphoblastic Leukemia, 48 hours
CEM = experiment: MTT assay, cell number relative to vehicle; conditions: Homo sapiens, CCRF-CEM, T Cell Lymphoblastic Leukemia, 48 hours
RCH-AcV = experiment: MTT assay, cell number relative to vehicle; conditions: RCH-AcV (E2A-PBX1), B Cell Lymphoblastic Leukemia, 48 hours
REH = experiment: MTT assay, cell number relative to vehicle; conditions: Homo sapiens, REH (TEL-AML1), B Cell Lymphoblastic Leukemia, 48 hours
Method: (§1) Alternatively, an ALL cell line (REH) was treated with Trichostatin A (TSA), sodium phenyl butyrate (SPB), or vehicle only for 48 hours. MTT or BrdU were added for 4 hours. The relative number of viable cells, as indicated by MTT reduction, was determined (FIG. 1A and Table 1). The relative number of proliferating cells, as indicated by BrdU-incorporation, was measured using an ELISA assay (FIG. 1B). IC50 values were calculated using non-linear regression (Table 1). The percentages of apoptotic and dead cells were determined by flow cytometric analysis of cells stained with YO-PRO®-1 and propidium iodide (FIGS. 2 and 5A). DNA content was determined by flow cytometric analysis of propidium iodide stained cells. The fractions of cells with G1, S, and G2/M phase DNA contents were determined (FIGS. 3 and 5B).

UOCB1 = experiment: MTT assay, cell number relative to vehicle; conditions: Homo sapiens, UoC-B1, UOCB1 (E2A-HLF), B Cell Lymphoblastic Leukemia, 48 hours
Nalm-6 = experiment: MTT assay, cell number relative to vehicle; conditions: Homo sapiens, Nalm-6 (PDGFRβ-TEL), B Cell Lymphoblastic Leukemia, 48 hours
HAL-01 = experiment: MTT assay, cell number relative to vehicle; conditions: Homo sapiens, HAL-01 (TCF3/E2A-HLF), B Cell Lymphoblastic Leukemia, 48 hours
RS4; 11 = experiment: MTT assay, cell number relative to vehicle; conditions: Homo sapiens, 11 (MLL-AF4), Biphenotypic Leukemia with Lymphoblastic Features, 48 hours
SEM cells = experiment: MTT assay, cell number relative to vehicle; conditions: SEM (MLL-AF4), Biphenotypic Leukemia with Lymphoblastic Features, 48 hours
KOPN-8 = experiment: MTT assay, cell number relative to vehicle; conditions: Homo sapiens, KOPN-8 (MLL-ENL), Biphenotypic Leukemia with Lymphoblastic Features, 48 hours
HEL = experiment: MTT assay, cell number relative to vehicle; conditions: Homo sapiens, Myeloid Leukemia, 48 hours
KG1 = experiment: MTT assay, cell number relative to vehicle; conditions: Homo sapiens, KG-1, KG1, Myeloid Leukemia, 48 hours
U937 = experiment: MTT assay, cell number relative to vehicle; conditions: Homo sapiens, U-937, U937, Myeloid Leukemia, 48 hours
EOL-1 = experiment: MTT assay, cell number relative to vehicle; conditions: Homo sapiens, EOL1, EOL-1 (FIP1L1-PDGFRα), Myeloid Leukemia, 48 hours
HL-60 = experiment: MTT assay, cell number relative to vehicle; conditions: Homo sapiens, HL-60, Myeloid Leukemia, 48 hours
MV4-11 = experiment: MTT assay, cell number relative to vehicle; conditions: Homo sapiens, MV4-11 (MLL-AF4), Biphenotypic Leukemia with Myeloid Features, 48 hours
Molm-13 = experiment: MTT assay, cell number relative to vehicle; conditions: Homo sapiens, Molm-13 (MLL-AF9), Biphenotypic Leukemia with Myeloid Features, 48 hours
Molm-14 = experiment: MTT assay, cell number relative to vehicle; conditions: Homo sapiens, Molm-14 (MLL-AF9), Biphenotypic Leukemia with Myeloid Features, 48 hours
THP-1 = experiment: MTT assay, cell number relative to vehicle; conditions: Homo sapiens, THP-1 (MLL-AF9), Biphenotypic Leukemia with Myeloid Features, 48 hours
NOMO-1 = experiment: MTT assay, cell number relative to vehicle; conditions: Homo sapiens, NOMO-1 (MLL-AF9), Biphenotypic Leukemia with Myeloid Features, 48 hours
[1] = tested on: mixed lineage leukemia cell lines; experiment: Apoptotic and dead cells by flow cytometry (YO-PRO-1 / propidium iodide); conditions: 48 hours; FIG. 2
Method: Apoptotic and dead cells were identified by flow cytometric analysis of cells stained with propidium iodide and YO-PRO®-1. Cells undergoing apoptosis are stained with YO-PRO®-1, but are impermeable to propidium iodide. Dead cells and cells in late apoptosis are permeable to both dyes. Viable cells are not stained by either dye. Mean (+/−SEM) percentages of apoptotic and dead cells were derived from 3-7 independent experiments.
as §1

## Nc1ccccc1NC(=O)c1ccc(CNC(=O)OCc2cccnc2)cc1 [entinostat, N-(2-aminophenyl)-4-(N-(pyridin-3-ylmethoxycarbonyl)aminomethyl)benzamide]
Jurkat
  IC50: 1270 nM
Molt-3
  IC50: 866 nM
Molt-4
  IC50: 721 nM
HSB-2
  IC50: 1290 nM
CEM
  IC50: 1280 nM
RCH-AcV
  IC50: 723 nM
REH
  IC50: 1500 nM
UOCB1
  IC50: 686 nM
Nalm-6
  IC50: 801 nM
HAL-01
  IC50: 499 nM
RS4; 11
  IC50: 2420 nM
SEM cells
  IC50: 250 nM
KOPN-8
  IC50: 396 nM
HEL
  IC50: 957 nM
KG1
  IC50: 1540 nM
U937
  IC50: 1000 nM
EOL-1
  IC50: 120 nM
HL-60
  IC50: 690 nM
MV4-11
  IC50: 362 nM
Molm-13
  IC50: 758 nM
Molm-14
  IC50: 839 nM
THP-1
  IC50: 4450 nM
NOMO-1
  IC50: 587 nM
[1]
  induction of cell death (apoptotic and dead cells): dose-dependent cell death

## O=C(CCCCCCC(=O)Nc1ccccc1)NO [vorinostat, N′-hydroxy-N-phenyl-octanediamide]
Jurkat
  IC50: 810 nM
[1]
  induction of cell death (apoptotic and dead cells): dose-dependent cell death
